From PMC7277860, “Viridistratins A−C, Antimicrobial and Cytotoxic Benzo[j]fluoranthenes from Stromata of Annulohypoxylon viridistratum (Hypoxylaceae, Ascomycota)” (Biomolecules, 2020)
≈ marks a conversion by molar mass, not a printed value. Blank lines part the entries; values can stand above or below the compound they belong to.

Assays:
Test in all cases: MIC serial dilution assay
Format in all cases: cell-based
[1] = test system: Mycolicibacterium smegmatis; conditions: Mycolicibacterium smegmatis ATCC700084; overnight, 37 °C; reference kanamycin 0.1 mg/mL
Method: (§1) Compounds 1, 2, 4 and 5 were dissolved in MeOH (1 mg/mL) for the antimicrobial activity assay, while compound 3 was dissolved in MeOH: DMSO 9+1 (1 mg/mL). The solvents were also used as negative controls.
(§2) Minimum inhibitory concentrations (MIC) were determined in a serial dilution assay, as described previously; a detailed protocol can be found in the Supporting Information. The compounds (1 mg/mL) were diluted to a range of 66.7 to 0.52 µg/mL and incubated with the test organisms overnight. Inhibition of growth was visually evaluated the next day: the MIC is defined as the lowest concentration of the test compound where no growth of the test organism was observed. Various test organisms of fungal and bacterial origin were tested to cover a broad range of microorganisms. This selection is also being used as a standard test panel in our attempts to discover new anti-infectives, as it represents a broad spectrum of pathogens of clinical interest, as well as sensitive indicator strains (bacteria: Bacillus subtilis, Staphylococcus aureus, Micrococcus luteus, Chromobacterium violaceum, Escherichia coli and Pseudomonas aeruginosa; mycobacteria: Mycolicibacterium smegmatis and fungi: Candida albicans, Schizosaccharomyces pombe, Mucor hiemalis, Pichia anomala and Rhodotorula glutinis).
(§3) Protocol: Antimicrobial Activi ty Assay
(§4) The assay was conducted as a minimum inhi bitory concentration (MIC) assay in 96-well ro und-bottom mi crotiter pl ate s usi ng the p ar ameter s su mm ari zed i n T a bl e S 1 and as already described i n [S1].
(§5) Stocks of the test organi sms were generated by growing the organisms o ver ni ght i n 50 mL shaki ng fl asks fi ll ed wi th 25 mL of the growth medi um at 140 rpm (for media and temperatures see Table S1). If the organisms were well grown the ne xt day, which was checked by occurrence of an optical density (OD)>30 of the suspension (OD600 nm for bacteria, OD548 nm for fungi and M. smegma tis) , aliquots of these were stored i n 1.5 mL reaction tube s in a freezer at −80 °C for up to 12 mo nths . Upon use, aliquots were unth awed and the OD of the suspension measured and adjusted by diluting with the respective growth medi um. OD600 nm w as adj usted to 0.01 and OD548 nm to 0.1.
(§6) Subse que ntly, 150 µL o f the adjusted suspensions were added to all wells of a 96-wel l microtiter pl ate (one test organi sm per plate). In row A, additional 130 µL of suspensions plus 20 µL of the test compounds (1 mg/mL) and the controls (one compound/column) were added. MeOH as well as MeOH:DMSO 9+1 were used as negative controls, while different positive controls (refer ences) were used for the test organisms (see Tabl e S1). Then, starti ng from row A, 150 µ L of the suspension were transferred to the next row, the contents thoroughly mixed, and 150 µ L transferred to the following row.
(§7) The remaining 150 µ L after row H were discarded. […]
(§8) compounds, ranging from 66.7 µg/mL i n row A to 0.52 µg/mL i n row H.
(§9) The microtiter plates were then incubated overnight o n a microplate shaker at 800 rpm at 30 or 37 °C (see Table S1) and were visually evaluated the next day. The MIC is defined as the lowest concentration were no growth of the test organism was o bserved. A lower MIC thus corresponds to a higher antimicrobial activity of the test compound.
(§10) Table S1: MIC assay ex per i men t parameters test organism strain No. growth incubation positive control (reference) […]
(§11) Rhodotorula glutinis DSM10134 MYC 3 30 nyst ati n 1.0 mg/mL
(§12) 1 MHB: Müller-Hinton Broth (SN X927.1, Ca r l Roth GmbH, Karlsruhe, Germany) 2 7H9+ADC: Middlebrook 7H9 Broth Base + Middlebrook ADC Growth Supplement (SN M0678+M0553, Merck, Darmstadt, Germany)
(§13) 3 MYC: 1 % w/v, bacto peptone, 1% w/v yeast extract, 2 % w /v glycerol, pH 6.3 [S1] Helaly, S.E.; Ashrafi, S.; Teponno, R.B.; Bernecker, S.; Dababat, A.A.; Maier, W.; Stadler, M.
(§14) Nematicidal Cyclic Lipodepsipeptides and a Xanthocillin Derivative from a Phaeosphariaceous […]

[2] = test system: Rhodotorula glutinis; conditions: Rhodotorula glutinis DSM10134; overnight, 30 °C; reference nystatin 1 mg/mL
Method: as §1, §2, §3, §4, §5, §6, §7, §8, §9, §10, §11, §12, §13, §14

[3] = test system: Candida albicans; conditions: Candida albicans DSM1665; overnight, 30 °C; reference nystatin 1 mg/mL
Method: as §1, §2, §3, §4, §5, §6, §7, §8, §9, §10
Candida albicans DSM1665 MYC 3 30 nyst ati n 1.0 mg/mL […]
as §11, §12, §13, §14

[4] = test system: Schizosaccharomyces pombe; conditions: Schizosaccharomyces pombe DSM70572; overnight, 30 °C; reference nystatin 1 mg/mL
Method: as §1, §2, §3, §4, §5, §6, §7, §8, §9, §10
Schizosaccharomyces DSM70572 MYC 3 30 nyst ati n 1.0 mg/mL […]
as §11, §12, §13, §14

[5] = test system: Mucor hiemalis; conditions: Mucor hiemalis DSM2656; overnight, 30 °C; reference nystatin 1 mg/mL
Method: as §1, §2, §3, §4, §5, §6, §7, §8, §9, §10
Mucor hiemalis DSM2656 MYC 3 30 nyst ati n 1.0 mg/mL […]
as §11, §12, §13, §14

[6] = test system: Pichia anomala; conditions: Pichia anomala DSM6766; overnight, 30 °C; reference nystatin 1 mg/mL
Method: as §1, §2, §3, §4, §5, §6, §7, §8, §9, §10
Pichia anomala DSM6766 MYC 3 30 nyst ati n 1.0 mg/mL
as §11, §12, §13, §14

[7] = test system: Bacillus subtilis; conditions: Bacillus subtilis DSM10; overnight, 30 °C; reference oxytetracycline 1 mg/mL; read-out: Minimum Inhibitory Concentration (MIC)
Method: as §1, §2, §3, §4, §5, §6, §7, §8, §9, §10
Bacillus subtilis DSM10 MHB 1 30 oxytetr acyclin 1.0 mg/mL […]
as §11, §12, §13, §14

[8] = test system: Staphylococcus aureus; conditions: Staphylococcus aureus DSM346; overnight, 30 °C; reference oxytetracycline 0.1 mg/mL; read-out: Minimum Inhibitory Concentration (MIC)
Method: as §1, §2, §3, §4, §5, §6, §7, §8, §9, §10
Staphylococcus aureus DSM346 MHB 1 30 oxytetr acyclin 0.1 mg/mL […]
as §11, §12, §13, §14

[9] = test system: Micrococcus luteus; conditions: Micrococcus luteus, DSM1790, Micrococcus luteus DSM1790; overnight, 30 °C; reference oxytetracycline 0.1 mg/mL; read-out: Minimum Inhibitory Concentration (MIC)
Method: as §1, §2, §3, §4, §5, §6, §7, §8, §9, §10
Micrococcus luteu s DSM1790 MHB 1 30 oxytetr acyclin 0.1 mg/mL […]
as §11, §12, §13, §14

[10] = test system: Chromobacterium violaceum; conditions: Chromobacterium violaceum DSM30191; overnight, 30 °C; reference oxytetracycline 0.1 mg/mL; read-out: Minimum Inhibitory Concentration (MIC)
Method: as §1, §2, §3, §4, §5, §6, §7, §8, §9, §10
Chromobacterium DSM30191 MHB 1 30 oxytetr acyclin 0.1 mg/mL […]
as §11, §12, §13, §14

[11] = test system: Escherichia coli; conditions: Escherichia coli DSM1116; overnight, 37 °C; reference oxytetracycline 0.1 mg/mL; read-out: Minimum Inhibitory Concentration (MIC)
Method: as §1, §2, §3, §4, §5, §6, §7, §8, §9, §10
Escherichia coli DSM1116 MHB 1 37 oxytetr acyclin 0.1 mg/mL […]
as §11, §12, §13, §14

Compound: NC[C@H]1O[C@H](O[C@H]2[C@H](O)[C@@H](O[C@H]3O[C@H](CO)[C@@H](O)[C@H](N)[C@H]3O)[C@H](N)C[C@@H]2N)[C@H](O)[C@@H](O)[C@@H]1O [kanamycin, reference compound]
- Minimum Inhibitory Concentration (MIC) [1]: 3.3 ^4 µg/mL

Compound: C[C@@H]1[C@H](O)[C@@H](C)/C=C/C=C/CC/C=C/C=C/C=C/C=C/C(O[C@H]2O[C@H](C)[C@@H](O)[C@H](N)[C@@H]2O)CC2O[C@](O)(CC(O)C(O)CCC(O)CC(O)CC(O)CC(=O)O[C@H]1C)CC(O)C2C(=O)O (some centres unmarked) [nystatin, reference compound]
- Minimum Inhibitory Concentration (MIC) [2]: 16.7 ^5 µg/mL
- Minimum Inhibitory Concentration (MIC) [3]: 66.7 ^5 µg/mL
- Minimum Inhibitory Concentration (MIC) [4]: 33.3 ^5 µg/mL
- Minimum Inhibitory Concentration (MIC) [5]: 66.7 ^5 µg/mL
- Minimum Inhibitory Concentration (MIC) [6]: 66.7 ^5 µg/mL

- MIC [7]: 8.3 µg/mL (≈ 18 µM)
- MIC [8]: 0.4 µg/mL (≈ 0.869 µM)
- MIC [9]: 0.8 µg/mL (≈ 1.74 µM)
- MIC [10]: 0.1 µg/mL (≈ 0.217 µM)
- MIC [11]: 1.7 µg/mL (≈ 3.69 µM)
Compound: CN(C)[C@@H]1C(O)=C(C(N)=O)C(=O)[C@@]2(O)C(O)=C3C(=O)c4c(O)cccc4[C@@](C)(O)[C@H]3[C@H](O)[C@@H]12 [oxytetracycline, reference compound]
